Experimental data published in patent US20200113882A1, “Use of 4-Aminopyridine to Improve Neuro-Cognitive and/or Neuro-Psychiatric Impairment in Patients with Demyelinating and Other Nervous System Conditions” (priority 2009, published 2020).

What was measured:
[1] = single- and repeated-dose toxicity studies in animals; type: in vivo
Protocol: In single- and repeated-dose toxicity studies, the dosing regimen greatly affected the rate of mortality and incidence of clinical signs in all species studied (with the possible exception of the mouse). In general, higher mortality rates and greater incidences of adverse clinical signs were noted when 4-aminopyridine was administered in a single large dose as compared to when the same total dose was given as two, three, or four equally divided sub-doses. Toxic responses to orally administered 4-aminopyridine were rapid in onset, most often occurring within the first 2 hours post-dose.
These clinical signs were not unexpected and represent exaggerated pharmacology of 4-aminopyridine.

[2] = rat pharmacokinetics after i.v. and p.o. 2 mg/kg (M 2001-03); details: rats, single p.o. 2 mg/kg
[3] = test system: normal adult myelinated axons; details: cited from earlier work
[4] = adverse events in clinical studies; type: in vivo, human; details: controlled clinical studies
Excerpt: In controlled clinical studies involving the use of fampridine, the most frequent adverse events by body system occurred in the nervous system, “body as a whole”, and digestive system.
While an increased incidence of such events appears to be moderately dose-related, the susceptibility of individuals is quite variable. The potential for lowering seizure threshold in people with MS appears to be more significant than for people with spinal cord injury, which may result from interaction of the channel-blocking properties of the drug with MS brain pathology in certain individuals.

[5] = test system: cognitive function in MS patients; details: prior study; cited from earlier work
[6] = 14C-4-aminopyridine single oral dose 1 mg/kg in dogs (HWI 6379-102): absorption; type: in vivo, dog; details: equal mg/kg doses, 1 mg/kg oral
Protocol: (§1) Studies were performed in rats and dogs using ^14C-labeled 4-aminopyridine (1 mg/kg) given as a single oral gavage dose in solution.

[7] = 14C-4-aminopyridine single oral dose 1 mg/kg in rats (HWI 6379-101): absorption, tissue distribution
Protocol: as §1
In a single-dose study, rats were administered ^14C-labeled 4-aminopyridine (1 mg/kg) p.o. Three animals per time point were sacrificed 1, 3, 8, and 24 hours post-dose. Blood was collected and tissues were excised for determination of radioactivity.

[8] = rats, 1 mg/kg p.o., one hour post-dose

Structure (SMILES): Nc1ccncc1 [4-aminopyridine]
- clinical signs ([1]; after large single doses or repeated lower doses, all species studied): tremors, convulsions, ataxia, dyspnea, dilated pupils, prostration, abnormal vocalization, increased respiration, excess salivation, gait abnormalities, and hyper- and hypo-excitability
- onset of toxic responses post-dose ([1]; orally administered, most often): ≤ 2 h
- Vdss difference between males and females adjusted for body weight [2]: 2%
- concentrations that tend to cause gradual depolarization of the axon resting potential ([3]; (94.1 μg/mL)): above 1 mM
- concentrations at which action potential shows little or no sensitivity ([3]; normal adult myelinated axons (9.4 μg/mL)): below 100 μM
- most common nervous system adverse events [4]: Dizziness, insomnia, paresthesia, pain, headache and asthenia
- most frequently reported digestive system adverse event [4]: nausea
- benefit of cognitive function [5]: did not show benefit

Structure (SMILES): Nc1ccncc1 [14C-4-Aminopyridine]
- Cmax and AUC in the dog relative to the rat [6]: approximately four-fold higher
- time to peak plasma levels ([7]; both, rat, in vivo, po, 1 mg/kg): 0.5 to 1 h
- radioactive dose in carcass ([7]; rats, 1 mg/kg p.o., 3 hours post-dose): 15.4%
- dose accounted for in total (radioactivity) [7, 8]: 58.3%
- radioactivity in blood, percent of dose [7, 8]: 0.7%
- radioactivity in carcass [7, 8]: 51%
- radioactivity in kidney, percent of dose [7, 8]: 1.6%
- radioactivity in liver, percent of dose [7, 8]: 2.6%
